Test results reported in patent US7323542B2, “Bone targeting peptides” (University of Virginia Patent Foundation, priority 2002, dated 2008).

Assays:
[1] = tested on: LNCaP cells binding to huBMEC; experiment: Adhesion of 3H-thymidine labeled LNCaP cancer cells to huBMEC lawns in presence of peptide; format: cell-based, human; details: for PERCENT OF CONTROL AT 2H ADHESION: LNCaP cells on huBMEC; for inhibition of the ability of LNCaP cells to bind to huBMEC: in words, based on Table 1
Description: (§1) In accordance with one embodiment a method for inhibiting the growth of tumors is provided. The method comprises the steps of contacting tumor cells with a composition comprising an amino acid sequence selected from the group consisting of SEQ ID NOs: 1-24. As described in Example 3 the peptides of the present invention have been studied for their ability to prevent cancer cells from binding to human bone marrow endothelial cells (huBMEC). Either androgen dependent cancer cells (LNCaP cells) or androgen independent cancer cells (C42 cells) were labeled with 3H-thymidine and placed in contact with huBMEC in the presence of varying concentrations of bone targeting peptides R1 (SEQ ID NO: 25), R3 (SEQ ID NO: 27), L13 (SEQ ID NO: 22) and L19 (SEQ ID NO: 24). The cells were washed and the percent of acid precipitatable counts bound to huBMEC was determined (See Table 1). The control, where no bone targeting peptide was added generated approximately 18% acid ppt counts bound. […] Accordingly, these peptides in particular may be formulated a pharmaceutical compositions to prevent metastases to the bone. The composition may further include known anti-cancer agents such as chemotherapeutic agents. The compositions can be administered to a patient using any of the standard routes including oral and parenteral. In one preferred embodiment the compositions are administered locally by injection.
(§2) The initial interaction of metastatic cells is with the surface of the organ that will be colonized. Presumably, this interaction is through cell-matrix or cell-cell interaction. There are at least two potential targets for prostate cancer cells to interact, bone stromal cells and bone marrow endothelial cells. Briefly, lawns of target cells (D1 or huBMEC) will be established in 24-well dishes by seeding ˜5×10^4 cells per well 2-3 days before the adhesion experiment. At this time, subconfluent (˜50%) cultures of test cells (LNCaP, C4-2, DU145 and PC-3) will be placed into media with 1 uCi/ml tritiated thymidine. Two to three days later, labeled cells will be removed using a 5-10 mM EDTA/PBS solution and 1×10^5 test cells will be added to confluent lawns of target cells. Three groups are envisioned for each cell line 1) no peptide, 2) peptide at ED50 and 3) peptide at ED90.
(§3) There will also be an aliquot of labeled cells set aside to determine total acid precipitablc counts added. Adhesion assays will proceed for either 1 or 2 hours. Adherent cells will be separated from non-adherent cells by 2 rounds of 0.5 ml washes with PBS at 100 rpm for 2 minutes per wash. The remaining cells will then be fixed in 10% TCA for 10 min. with gentle shaking followed by hydrolysis of the residue in 0.5 ml of 2 N NaOH. The NaOH will be neutralized by 100 ul of concentrated HCl. The samples will then be counted in a liquid scintillation apparatus. The data will be analyzed by the Mellon Prostate Center Biostatistics Core to determine differences in growth and the ED50 and ED90 for each peptide if reasonable.
(§4) Using this adhesion assay the bone targeting peptides have been studied for their ability to prevent cancer cells from binding to huBMEC. Either androgen dependent cancer cells (LNCaP cells) or androgen independent cancer cells (C42 cells) were labeled with 3H-thymidine and placed in contact with huBMEC in the presence of varying concentrations of bone targeting peptides R1 (SEQ ID NO: 25), R3 (SEQ ID NO: 27), L13 (SEQ ID NO: 22) and L19 (SEQ ID NO: 24). The cells were washed and the percent of acid precipitatable counts bound to huBMEC was determined (See Table 1). The control, where no bone targeting peptide was added, is not shown, but generated approximately 18% acid ppt counts bound. […] Accordingly, these peptides in particular may be formulated a pharmaceutical compositions to prevent metastases to the bone.

[2] = tested on: C4-2 cells binding to huBMEC; experiment: Adhesion of 3H-thymidine labeled C4-2 cancer cells to huBMEC lawns in presence of peptide; format: cell-based, human; details: for PERCENT OF CONTROL AT 2H ADHESION: C4-2 cells on huBMEC; for inhibition of the ability of C42 cells to bind to huBMEC: in words, based on Table 1
Description: as §1, §2, §3, §4

[3] = tested on: bone marrow derived mesenchymal cells and human bone marrow endothelial cells; experiment: Binding of biotin-coupled peptides to cells in vitro, avidin-FITC detection; format: cell-based
Description: The cells currently investigated for binding to the peptides of the present invention were chosen because they are derived from bone marrow and are characteristic of mesenchymal cells that are pluripotential and behave as osteoprogenitors. The cells are capable of differentiating into bone cells in vitro and retain their osteogenic properties after transplantation in vivo into syngeneic mice. The human bone marrow endothelial cells are non-osteogenic and, therefore, are in contrast to the collagen type I, and mineral, producing properties of mesenchymal cells. The bone marrow endothelial cells serve the purpose of having a cell that is derived from the endothelial lining of the bone marrow cavity i.e. a cell from the endosteal surface. Although these are not the only cells that can be used, they will form the basis of the majority of the present studies with cells. […]
Peptides have been synthesized with a gly-gly-gly linker and coupled to biotin. […] Fluorescence was found at attachment sites of cellular processes to the substratum. […]
Control experiments with non-biotinylated peptides will ensure that binding avidin-FITC is specific to the properties of the peptide that target the cell surface or its extracellular matrix. No non-specific binding has been encountered so far with the three peptide sequences that have been explored and, there was no background fluorescence.

rib bone = experiment: Localisation of peptides to rib tissue
Description: The peptides may have different effects depending on cell types from different tissues. The need to explore cells from other tissues, such as fibroblasts, adipocytes or muscle cells, may be determined by the location of the peptide ligands in area of tissue that are not directed within bone but there are adjacent to it. The case in point is that one peptide so far, L19, has been located to a tissue, that has not been identified yet, which, is adjacent to bone in rib. […] Analysis of cell types other than marrow mesenchymal or endothelial cells will help identify the specific cells, and their matrices that are targeted by individual peptides.

Row | binding to bone (in rib) (rib bone) | Substance | PERCENT OF CONTROL AT 2H ADHESION ([1]; peptide 50 μM) | PERCENT OF CONTROL AT 2H ADHESION ([1]; peptide 100 μM) | PERCENT OF CONTROL AT 2H ADHESION ([2]; peptide 50 μM) | PERCENT OF CONTROL AT 2H ADHESION ([2]; peptide 100 μM) | binding to cells in culture [3] | inhibition of the ability of C42 cells to bind to huBMEC [2] | tissue localisation of peptide (rib bone; preliminary) | inhibition of the ability of LNCaP cells to bind to huBMEC [1]
1 | – | ASN- TYR-SER-HIS-LEU-ARG- VAL-LYS-LEU-PRO-THR-PRO (NYSHLRVKLPTP; listed as Homo sapiens) [R1] | 14.7 % of control | 9.9 % of control | 9.0 % of control | 9.6 % of control | binds to cells in culture | – | – | –
2 | not detected in the bone itself | ASP-SER-SER-ASN-PRO-ILE-PHE- TRP-ARG-PRO-SER-SER (DSSNPIFWRPSS; listed as Homo sapiens) [L19] | 3.3 % of control | 4.1 % of control | 15.6 % of control | 18.4 % of control | – | substantially inhibits | localized to a soft tissue adjacent to rib | –
3 | binds to rib bone | SER-GLY-HIS-GLN-LEU-LEU-LEU-ASN-LYS-MET-PRO-ASN (SGHQLLLNKMPN; listed as Homo sapiens) [L13] | 3.8 % of control | 2.8 % of control | 5.8 % of control | 4.2 % of control | – | substantially inhibits | – | substantially inhibits
4 | – | ALA- THR- TRP-SER-HIS-HIS-LEU-SER-SER-ALA-GLY-LEU (ATWSHHLSSAGL; listed as Homo sapiens) [R3] | 14.7 % of control | 3.8 % of control | 17.9 % of control | 7.9 % of control | – | substantially inhibits | – | substantially inhibits
